The values below come from patent US7429660B2, “ATM inhibitors” (Kudos Pharmaceuticals Limited, priority 2003, dated 2008).

This assay concerns the target T1, ATM protein immunoprecipitated from HeLa cell nuclear extract (Homo sapiens, UniProt Q13315).
T1 construct: ATM protein was immunoprecipitated from HeLa cell nuclear extract; endogenous in cells; host or cells: HeLa cell nuclear extract (immunoprecipitated with rabbit polyclonal anti-ATM antiserum)
Kind of assay: In vitro ATM inhibition assay (phosphorylation of GSTp53N66 on serine 15, chemiluminescent detection). Note: tested normally from 100 µM down to 0.1 nM. In kind it is biochemical. The note with it: read-out: IC50 values (the concentration at which 50% of the enzyme activity is inhibited), ATM inhibition. As for the experimental part: In order to assess the inhibitory action of the compounds against ATM in vitro, the following assay was used to determine IC50 values. ATM protein was immunoprecipitated from HeLa cell nuclear extract using rabbit polyclonal anti-sera raised to the C-terminal ˜500 amino-acid residues of the human ATM protein. […] 10 μl of immunoprecipitated ATM in Buffer C (50 mM Hepes, pH 7.4, 6 mM MgCl2, 150 mM NaCl, 0.1 mM sodium orthovanadate, 4 mM MnCl2, 0.1 mM dithiothreitol, 10% glycerol) was added to 32.5 μl of buffer C containing 1 μg of the ATM substrate GSTp53N66 in a V-bottomed 96 well polypropylene plate. The GSTp53N66 substrate is the amino terminal 66 amino acid residues of human wild type p53 fused to glutathione S-transferase. […] Varying concentrations of inhibitor were then added. […] After 10 minutes of incubation at 37° C., the reactions were initiated by the addition of 5 μl of 500 μM Na-ATP. After 1 hour with shaking at 37° C., 150 μl of phosphate buffered saline (PBS) was added to the reaction and the plate centrifuged at 1500 rpm for 10 minutes. 5 μl of the reaction was then transferred to a 96 well opaque white plate containing 45 μl of PBS to allow the GSTp53N66 substrate to bind to the plate wells. The plate was covered and incubated at room temperature for 1 hour with shaking before discarding the contents. The plate wells were washed twice by the addition of PBS prior to the addition of 3% (w/v) bovine serum albumin (BSA) in PBS. The plate was incubated at room temperature for 1 hour with shaking before discarding the contents and washing twice with PBS. To the wells, 50 μl of a 1:10,000 dilution of primary phosphoserine-15 antibody (Cell Signaling Technology, #9284L) in 3% BSA/PBS was added to detect the phosphorylation event on the serine 15 residue of p53 elicited by the ATM kinase. […] The wells were then washed four times with PBS before the addition of chemiluminescence reagent (NEN Renaissance, NEL105). The plate was then shaken briefly, covered with a transparent plate seal and transferred to a TopCount NXT for chemiluminescent counting. Counts per second, following a one second counting time, were recorded for each reaction.
The enzyme activity for each compound is then calculated using the following equation:
[formula] Results In vitro ATM assays
Compounds were assayed for ATM inhibition activity using the method described above. […] These are determined over a range of different concentrations, normally from 100 μM down to 0.1 nM. Such IC50 values are used as comparative values to identify increased compound potencies.

SMILES strings stand for the structures.

T1 sequence (Q13315 whole entry): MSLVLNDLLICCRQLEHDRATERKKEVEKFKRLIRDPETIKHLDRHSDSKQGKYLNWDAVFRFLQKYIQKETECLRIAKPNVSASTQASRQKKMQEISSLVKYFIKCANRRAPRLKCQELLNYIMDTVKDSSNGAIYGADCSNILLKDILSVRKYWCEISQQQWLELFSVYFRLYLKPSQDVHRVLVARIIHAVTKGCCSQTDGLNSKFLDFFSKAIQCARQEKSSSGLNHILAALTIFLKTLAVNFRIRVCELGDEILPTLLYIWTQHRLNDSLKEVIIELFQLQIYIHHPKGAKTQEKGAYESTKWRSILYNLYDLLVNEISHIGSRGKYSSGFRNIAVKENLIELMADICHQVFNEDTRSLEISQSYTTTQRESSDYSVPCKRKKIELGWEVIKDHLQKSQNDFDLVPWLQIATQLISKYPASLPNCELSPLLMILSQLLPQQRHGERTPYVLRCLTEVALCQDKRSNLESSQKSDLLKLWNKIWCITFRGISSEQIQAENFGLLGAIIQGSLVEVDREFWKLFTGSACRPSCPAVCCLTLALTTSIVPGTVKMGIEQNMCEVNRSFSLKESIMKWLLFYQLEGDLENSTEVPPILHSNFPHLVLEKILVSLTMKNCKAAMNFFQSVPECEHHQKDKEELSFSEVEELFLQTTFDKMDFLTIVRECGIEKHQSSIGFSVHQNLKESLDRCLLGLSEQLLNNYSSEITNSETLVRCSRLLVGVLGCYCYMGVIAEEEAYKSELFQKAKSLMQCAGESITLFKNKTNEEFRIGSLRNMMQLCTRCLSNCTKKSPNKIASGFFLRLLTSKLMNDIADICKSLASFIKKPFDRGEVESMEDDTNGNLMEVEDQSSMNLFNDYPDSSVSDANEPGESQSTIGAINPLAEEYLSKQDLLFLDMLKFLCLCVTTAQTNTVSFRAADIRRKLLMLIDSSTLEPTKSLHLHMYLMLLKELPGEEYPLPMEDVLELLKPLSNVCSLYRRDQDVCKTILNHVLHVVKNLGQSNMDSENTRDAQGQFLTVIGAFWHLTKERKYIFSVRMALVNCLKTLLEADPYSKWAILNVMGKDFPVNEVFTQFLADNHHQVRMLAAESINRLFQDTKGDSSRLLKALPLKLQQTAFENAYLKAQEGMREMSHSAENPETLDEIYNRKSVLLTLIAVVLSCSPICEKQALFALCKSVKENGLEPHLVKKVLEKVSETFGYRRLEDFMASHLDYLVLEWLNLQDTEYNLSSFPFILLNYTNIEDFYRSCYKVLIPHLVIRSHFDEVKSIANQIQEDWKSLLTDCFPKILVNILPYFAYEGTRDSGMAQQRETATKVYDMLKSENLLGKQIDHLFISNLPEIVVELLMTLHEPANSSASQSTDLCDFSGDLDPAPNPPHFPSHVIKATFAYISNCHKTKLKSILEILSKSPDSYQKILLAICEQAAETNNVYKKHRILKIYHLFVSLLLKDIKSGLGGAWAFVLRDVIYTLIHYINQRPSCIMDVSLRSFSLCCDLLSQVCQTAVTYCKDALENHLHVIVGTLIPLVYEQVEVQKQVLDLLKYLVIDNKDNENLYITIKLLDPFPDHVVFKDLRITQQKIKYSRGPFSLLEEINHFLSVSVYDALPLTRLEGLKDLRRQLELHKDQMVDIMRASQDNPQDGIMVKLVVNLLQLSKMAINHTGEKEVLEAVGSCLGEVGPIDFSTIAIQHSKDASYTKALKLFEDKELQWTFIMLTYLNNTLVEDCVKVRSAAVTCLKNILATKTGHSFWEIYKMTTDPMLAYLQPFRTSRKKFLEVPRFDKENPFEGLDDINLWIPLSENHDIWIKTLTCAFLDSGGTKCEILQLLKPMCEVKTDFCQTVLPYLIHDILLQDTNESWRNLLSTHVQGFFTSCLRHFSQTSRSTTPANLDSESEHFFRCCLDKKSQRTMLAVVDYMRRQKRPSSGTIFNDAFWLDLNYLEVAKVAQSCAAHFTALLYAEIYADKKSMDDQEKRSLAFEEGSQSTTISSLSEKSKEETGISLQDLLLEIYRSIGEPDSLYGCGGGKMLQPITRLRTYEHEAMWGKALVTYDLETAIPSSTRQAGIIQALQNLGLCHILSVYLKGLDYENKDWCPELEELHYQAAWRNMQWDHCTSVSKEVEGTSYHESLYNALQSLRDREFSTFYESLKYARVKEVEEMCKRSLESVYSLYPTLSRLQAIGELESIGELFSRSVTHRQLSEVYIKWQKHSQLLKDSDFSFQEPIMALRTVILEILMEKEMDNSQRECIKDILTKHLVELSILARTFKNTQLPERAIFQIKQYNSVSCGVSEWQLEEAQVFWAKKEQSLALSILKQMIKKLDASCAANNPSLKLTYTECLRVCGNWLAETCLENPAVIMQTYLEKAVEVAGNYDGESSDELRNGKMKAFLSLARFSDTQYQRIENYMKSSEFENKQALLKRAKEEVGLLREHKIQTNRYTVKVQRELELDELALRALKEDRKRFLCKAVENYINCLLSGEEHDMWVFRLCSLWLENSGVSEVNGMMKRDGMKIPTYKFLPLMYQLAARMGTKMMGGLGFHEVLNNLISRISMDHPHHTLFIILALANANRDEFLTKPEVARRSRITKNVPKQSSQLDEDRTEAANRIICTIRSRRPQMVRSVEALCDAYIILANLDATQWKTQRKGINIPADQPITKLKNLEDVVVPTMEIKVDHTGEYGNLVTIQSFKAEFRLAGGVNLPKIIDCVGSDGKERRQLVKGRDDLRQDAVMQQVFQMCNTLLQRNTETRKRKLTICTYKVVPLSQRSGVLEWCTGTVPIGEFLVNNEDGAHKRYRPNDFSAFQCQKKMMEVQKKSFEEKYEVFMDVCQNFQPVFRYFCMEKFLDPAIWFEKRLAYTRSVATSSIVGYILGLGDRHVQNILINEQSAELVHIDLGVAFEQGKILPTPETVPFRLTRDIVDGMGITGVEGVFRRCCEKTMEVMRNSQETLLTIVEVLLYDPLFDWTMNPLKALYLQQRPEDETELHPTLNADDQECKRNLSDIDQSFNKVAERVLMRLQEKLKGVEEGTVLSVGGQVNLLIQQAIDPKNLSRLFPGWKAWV

In the case of `COCCOCC(=O)Nc1ccc2c(c1)Sc1cccc(-c3cc(=O)cc(N4CCOCC4)o3)c1S2` [Compound 48], the IC50 was under 200 nM.
In the case of `CN1CCN(CCCN2c3ccccc3Sc3c(-c4cc(=O)cc(N5CCOCC5)o4)cccc32)CC1` [Compound 288] it was under 200 nM; in that of `CCN1CCN(C(=O)COc2ccc3c(c2)Cc2cccc(-c4cc(=O)cc(N5CCOCC5)o4)c2S3)CC1` [Compound 524], under 200 nM; in that of `O=C(COc1ccc2c(c1)Sc1cccc(-c3cc(=O)cc(N4CCOCC4)o3)c1S2)N1CCCCCC1` [Compound 446], under 200 nM.
In the case of `O=C(CCN1CCCNCC1)Nc1ccc2c(c1)Sc1cccc(-c3cc(=O)cc(N4CCOCC4)o3)c1S2` [Compound 100] it was under 200 nM.
In the case of `O=C(COc1ccc2c(c1)Sc1cccc(-c3cc(=O)cc(N4CCOCC4)o3)c1S2)N1CCN(c2ccccn2)CC1` [Compound 426] it was under 200 nM; in that of `O=c1cc(-c2cccc3c2Sc2ccc(S(=O)(=O)N(CCO)CCO)cc2C3)oc(N2CCOCC2)c1` [Compound 490], under 200 nM; in that of `CC(=O)N1CCN(CCC(=O)Nc2ccc3c(c2)Sc2cccc(-c4cc(=O)cc(N5CCOCC5)o4)c2S3)CC1` [Compound 116], under 200 nM.
For the compound `CN1CCCC1CCNCCC(=O)Nc1ccc2c(c1)Sc1cccc(-c3cc(=O)cc(N4CCOCC4)o3)c1S2` (centres unmarked) [Compound 114], the IC50 was under 200 nM.
For `CN(CCOc1ccc2c(c1)Sc1cccc(-c3cc(=O)cc(N4CCOCC4)o3)c1S2)CCc1ccccn1` [Compound 398] the value was under 200 nM; for `O=c1cc(-c2cccc3c2Sc2ccccc2N3CCCNCCc2cnc[nH]2)oc(N2CCOCC2)c1` [Compound 271], under 200 nM.
In the case of `CN(C)CCN1CCN(CC(=O)Nc2ccc3c(c2)Cc2cccc(-c4cc(=O)cc(N5CCOCC5)o4)c2S3)CC1` [Compound 347] it was under 200 nM.
For `O=c1cc(-c2cccc3c2Sc2ccccc2N3CCCNCC2CCCCC2)oc(N2CCOCC2)c1` [Compound 253], the IC50 was under 200 nM.
In the case of `O=c1cc(-c2cccc3c2Sc2ccccc2N3CCCN2CCN(CCO)CC2)oc(N2CCOCC2)c1` [Compound 300] it was under 200 nM; in that of `O=C(CNCCCN1CCOCC1)Nc1ccc2c(c1)Sc1cccc(-c3cc(=O)cc(N4CCOCC4)o3)c1S2` [Compound 63], under 200 nM; in that of `O=c1cc(-c2cccc3c2Sc2ccccc2N3CCCNCCN2CCOCC2)oc(N2CCOCC2)c1` [Compound 272], under 200 nM.
Regarding `CN1CCC(NCCCN2c3ccccc3Sc3c(-c4cc(=O)cc(N5CCOCC5)o4)cccc32)CC1` [Compound 307], the IC50 is under 200 nM.
Regarding `CCN1CCN(CCC(=O)Nc2ccc3c(c2)Cc2cccc(-c4cc(=O)cc(N5CCOCC5)o4)c2S3)CC1` [Compound 352], the IC50 is under 200 nM.
In the case of `O=c1cc(-c2ccc(OCCCNC3CCC3)c3c2Sc2ccccc2S3)oc(N2CCOCC2)c1` [Compound 182] it was under 200 nM; in that of `N#Cc1ccc(C(=O)Nc2ccc3c(c2)Sc2cccc(-c4cc(=O)cc(N5CCOCC5)o4)c2S3)cc1` [Compound 27], under 200 nM.
In the case of `CC(C)N1CCN(CC(=O)Nc2ccc3c(c2)Cc2cccc(-c4cc(=O)cc(N5CCOCC5)o4)c2S3)CC1` [Compound 341] it was under 200 nM; in that of `O=C(COc1ccc2c(c1)Sc1cccc(-c3cc(=O)cc(N4CCOCC4)o3)c1S2)N1CCCC(CO)C1` (centres unmarked) [Compound 418], under 200 nM; in that of `CN1CCN(CCCNCCCN2c3ccccc3Sc3c(-c4cc(=O)cc(N5CCOCC5)o4)cccc32)CC1` [Compound 270], under 200 nM.
In the case of `CN(C)CCN1CCN(CCC(=O)Nc2ccc3c(c2)Sc2cccc(-c4cc(=O)cc(N5CCOCC5)o4)c2S3)CC1` [Compound 124] it was under 200 nM; in that of `O=C(CN1CCN(CCO)CC1)Nc1ccc2c(c1)Cc1cccc(-c3cc(=O)cc(N4CCOCC4)o3)c1S2` [Compound 348], under 200 nM; in that of `O=C(c1ccco1)N1CCN(CCOc2ccc3c(c2)Sc2cccc(-c4cc(=O)cc(N5CCOCC5)o4)c2S3)CC1` [Compound 395], under 200 nM.
Consider `O=c1cc(-c2cccc3c2Sc2ccccc2N3CCCN2CCN(c3ccccc3F)CC2)oc(N2CCOCC2)c1` [Compound 297], for which the IC50 is under 200 nM.
Take `CCCNCCOc1ccc2c(c1)Sc1cccc(-c3cc(=O)cc(N4CCOCC4)o3)c1S2` [Compound 383]: the IC50 was under 200 nM.
With `O=C(c1ccc2c(c1)Sc1cccc(-c3cc(=O)cc(N4CCOCC4)o3)c1S2)N1CCN(c2ncccn2)CC1` [Compound 13], the IC50 was under 200 nM.
For the compound `O=c1cc(-c2ccc(OCCNCCN3CCN(Cc4ccccc4)CC3)c3c2Sc2ccccc2S3)oc(N2CCOCC2)c1` [Compound 164], the IC50 was under 200 nM.
In the case of `CCN(CC(=O)Nc1ccc2c(c1)Sc1cccc(-c3cc(=O)cc(N4CCOCC4)o3)c1S2)Cc1ccncc1` [Compound 72], the IC50 is under 200 nM.
In the case of `O=C(c1ccc2c(c1)Sc1cccc(-c3cc(=O)cc(N4CCOCC4)o3)c1S2)N1CCNCC1` [Compound 19] it was under 200 nM; in that of `O=C(CN1CCN(c2ncccn2)CC1)Nc1ccc2c(c1)Cc1cccc(-c3cc(=O)cc(N4CCOCC4)o3)c1S2` [Compound 345], under 200 nM.
`O=C(COc1ccc2c(c1)Cc1cccc(-c3cc(=O)cc(N4CCOCC4)o3)c1S2)N1CCOCC1` [Compound 494]: the IC50 is under 200 nM.
With `O=C(CN1CCN(CCOCCO)CC1)Nc1ccc2c(c1)Cc1cccc(-c3cc(=O)cc(N4CCOCC4)o3)c1S2` [Compound 340], the IC50 is under 200 nM.
For `O=c1cc(-c2cccc3c2Sc2ccc(S(=O)(=O)NCC4CCCO4)cc2C3)oc(N2CCOCC2)c1` (centres unmarked) [Compound 455] the value was under 200 nM.
In the case of `O=c1cc(-c2cccc3c2Sc2ccc(OCCNCCc4ccccn4)cc2S3)oc(N2CCOCC2)c1` [Compound 381] it was under 200 nM.
As for `O=c1cc(-c2cccc3c2Sc2ccc(S(=O)(=O)NCC(F)(F)F)cc2C3)oc(N2CCOCC2)c1` [Compound 454], the IC50 was under 200 nM.
In the case of `O=C(CCN1CCCN(CCO)CC1)Nc1ccc2c(c1)Sc1cccc(-c3cc(=O)cc(N4CCOCC4)o3)c1S2` [Compound 129] it was under 200 nM; in that of `O=C(CSc1ncn[nH]1)Nc1ccc2c(c1)Sc1cccc(-c3cc(=O)cc(N4CCOCC4)o3)c1S2` [Compound 65], under 200 nM; in that of `COc1ccc(CNCC(=O)Nc2ccc3c(c2)Sc2cccc(-c4cc(=O)cc(N5CCOCC5)o4)c2S3)cc1` [Compound 64], under 200 nM.
Regarding `CCOC(=O)C1CCN(CCCN2c3ccccc3Sc3c(-c4cc(=O)cc(N5CCOCC5)o4)cccc32)CC1` [Compound 312], the IC50 was under 200 nM.
For the compound `CC(C)(C)OC(=O)N1CCN(C(=O)c2ccc3c(c2)Sc2cccc(-c4cc(=O)cc(N5CCOCC5)o4)c2S3)CC1` [Compound 16], the IC50 is under 200 nM.
With `CC(=O)N1CCN(S(=O)(=O)c2ccc3c(c2)Cc2cccc(-c4cc(=O)cc(N5CCOCC5)o4)c2S3)CC1` [Compound 476], the IC50 was under 200 nM.
Consider `O=C(Nc1ccc2c(c1)Sc1cccc(-c3cc(=O)cc(N4CCOCC4)o3)c1S2)C1CC1` [Compound 24], for which the IC50 is under 200 nM.
In the case of `NC(=O)C1CCN(C(=O)COc2ccc3c(c2)Cc2cccc(-c4cc(=O)cc(N5CCOCC5)o4)c2S3)CC1` [Compound 509] it was under 200 nM; in that of `O=c1cc(-c2cccc3c2Sc2ccccc2N3CCCNC2CCCCC2)oc(N2CCOCC2)c1` [Compound 251], under 200 nM.
Consider `CN1CCCN(CCCN2c3ccccc3Sc3c(-c4cc(=O)cc(N5CCOCC5)o4)cccc32)CC1` [Compound 331], for which the IC50 was under 200 nM.
For the compound `COCCN1CCN(CC(=O)Nc2ccc3c(c2)Sc2cccc(-c4cc(=O)cc(N5CCOCC5)o4)c2S3)CC1` [Compound 78], the IC50 is under 200 nM.
For `CN1CCN(CCC(=O)Nc2ccc3c(c2)Sc2cccc(-c4cc(=O)cc(N5CCOCC5)o4)c2S3)CC1` [Compound 94] the value was under 200 nM.
For `O=C(CCNCCN1CCNC1=O)Nc1ccc2c(c1)Sc1cccc(-c3cc(=O)cc(N4CCOCC4)o3)c1S2` [Compound 113] the value was under 200 nM; for `O=C(COc1ccc2c(c1)Sc1cccc(-c3cc(=O)cc(N4CCOCC4)o3)c1S2)NC(CO)CO` [Compound 411], under 200 nM.
In the case of `O=C(CN1CCCC1)Nc1ccc2c(c1)Sc1cccc(-c3cc(=O)cc(N4CCOCC4)o3)c1S2` [Compound 59] it was under 200 nM.
